Laboratory results: US20260028364A1, “CATIONIC CHROMENONES AND THEIR USE IN ONCOLOGY” (FLORATEK PHARMA S.A., priority 2022, published 2026)

How the values were obtained:
Format in all cases: cell-based
Kelly = assay: CellTiter-Glo cell viability, Kelly; conditions: Kelly cells, 72 h with compound
Method: (§1) Antitumor activity against a panel of cancer cell lines Antitumor activity of the compounds was assessed by using the CellTiter-Glow® Luminescent Cell Viability assay (Promega #G7572) according to the manufacturer's instructions. The compounds were tested at 5 or 6 concentrations in 1:2 dilution increments (highest concentration 10 µM) in triplicate well conditions.
(§2) Tumor cells were grown at 37° C. in a humidified atmosphere with 5% CO2 in RPMI 1640 or DMEM medium, supplemented with 10% (v/v) fetal calf serum and 50 μg/ml gentamicin for up to 20 passages, and were passaged once or twice weekly. Cells were harvested using TrypLE or PBS buffer containing 1 mM EDTA, and the percentage of viable cells is determined using a cell counter.
(§3) Cells were harvested from exponential phase cultures, counted and plated in 96 well flat-bottom microtiter plates at a cell density depending on the cell line's growth rate (4,000-20,000 cells/well depending on the cell line's growth rate) in RPMI 1640 or DMEM medium supplemented with 10% (v/v) fetal calf serum and 50 μg/ml gentamicin (140 μl/well). Cultures were incubated at 37° C. and 5% CO2 in a humidified atmosphere. After 24 h, 10 μl of test compounds or control medium are added, and left on the cells for another 72 h. Compounds were serially diluted in DMSO, transferred in cell culture medium, and added to the assay plates. The DMSO concentration was kept constant at <0.2% v/v across the assay plate. Viability of cells was quantified by the CellTiter-Glow® Luminescent Cell Viability assay (Promega #G7572). Luminescence was measured with the microplate luminometer (En Vision Perkin Elmer).
(§4) Sigmoidal concentration-response curves were fitted to the data points (test-versus-control, T/C values) obtained for each tumor model using Graph Pad prism 5.02 software. IC50 values are reported as absolute IC50 values, being the concentration of test compound at the intersection of the concentration-response curves with T/C=50%.

HCC-15 = assay: CellTiter-Glo cell viability, HCC-15; conditions: HCC-15 cells, 72 h with compound
Method: as §1, §2, §3, §4

MIA-PaCa-2 = assay: CellTiter-Glo cell viability, MIA-PaCa-2; conditions: MIA-PaCa-2 cells, 72 h with compound
Method: as §1, §2, §3, §4

SK-Mel-5 = assay: CellTiter-Glo cell viability, SK-Mel-5; conditions: SK-Mel-5 cells, 72 h with compound
Method: as §1, §2, §3, §4

A375 = assay: CellTiter-Glo cell viability, A375; conditions: A375 cells, 72 h with compound
Method: as §1, §2, §3, §4

SK-N-SH = assay: CellTiter-Glo cell viability, SK-N-SH; conditions: SK-N-SH cells, 72 h with compound
Method: as §1, §2, §3, §4

H69 = assay: CellTiter-Glo cell viability, H69; conditions: H69 cells, 72 h with compound
Method: as §1, §2, §3, §4

BxPC-3 = assay: CellTiter-Glo cell viability, BxPC-3; conditions: BxPC-3 cells, 72 h with compound
Method: as §1, §2, §3, §4

22Rv1 = assay: CellTiter-Glo cell viability, 22Rv1; conditions: 22Rv1 cells, 72 h with compound
Method: as §1, §2, §3, §4

A2058 = assay: CellTiter-Glo cell viability, A2058; conditions: A2058 cells, 72 h with compound
Method: as §1, §2, §3, §4

MDA-MB-468 = assay: CellTiter-Glo cell viability, MDA-MB-468; conditions: MDA-MB-468 cells, 72 h with compound
Method: as §1, §2
as §3, with “After 24 h, 10 μl of test compounds or control medium are added, and left on the cells for another 72 h. Compounds were serially diluted in DMSO, transferred in cell culture medium, and added to the assay plates. The DMSO concentration was kept constant at <0.2% v/v across the assay plate.” left out, “Elmer). […]” for “Elmer).”

H460 = assay: CellTiter-Glo cell viability, H460; conditions: H460 cells, 72 h with compound
Method: as §1, §2
as §3, with “After 24 h, 10 μl of test compounds or control medium are added, and left on the cells for another 72 h. Compounds were serially diluted in DMSO, transferred in cell culture medium, and added to the assay plates. The DMSO concentration was kept constant at <0.2% v/v across the assay plate.” left out, “Elmer). […]” for “Elmer).”

LNCaP = assay: CellTiter-Glo cell viability, LNCaP; conditions: LNCaP cells, 72 h with compound
Method: as §1, §2
as §3, with “After 24 h, 10 μl of test compounds or control medium are added, and left on the cells for another 72 h. Compounds were serially diluted in DMSO, transferred in cell culture medium, and added to the assay plates. The DMSO concentration was kept constant at <0.2% v/v across the assay plate.” left out, “Elmer). […]” for “Elmer).”

NCI-H1299 = assay: CellTiter-Glo cell viability, NCI-H1299; conditions: Homo sapiens, NCI-H1299; H1299 cells, 72 h with compound
Method: as §1, §2, §3, §4

LoVo = assay: CellTiter-Glo cell viability, LoVo; conditions: LoVo cells, 72 h with compound
Method: as §1, §2
as §3, with “After 24 h, 10 μl of test compounds or control medium are added, and left on the cells for another 72 h. Compounds were serially diluted in DMSO, transferred in cell culture medium, and added to the assay plates. The DMSO concentration was kept constant at <0.2% v/v across the assay plate.” left out, “Elmer). […]” for “Elmer).”

MOLT-4 = assay: CellTiter-Glo cell viability, MOLT-4; conditions: Homo sapiens; MOLT-4 cells, 72 h with compound
Method: as §1, §2
as §3, with “After 24 h, 10 μl of test compounds or control medium are added, and left on the cells for another 72 h. Compounds were serially diluted in DMSO, transferred in cell culture medium, and added to the assay plates. The DMSO concentration was kept constant at <0.2% v/v across the assay plate.” left out, “Elmer). […]” for “Elmer).”

A-673 = assay: CellTiter-Glo cell viability, A-673; conditions: Homo sapiens, A673; A-673 cells, 72 h with compound
Method: as §1, §2, §3, §4

Row | Compound | IC50 (Kelly) | IC50 (HCC-15) | IC50 (MIA-PaCa-2) | IC50 (SK-Mel-5) | IC50 (A375) | IC50 (SK-N-SH) | IC50 (H69) | IC50 (BxPC-3) | IC50 (22Rv1) | IC50 (A2058) | IC50 (MDA-MB-468) | IC50 (H460) | IC50 (LNCaP) | also measured
1 | COc1ccc2c(=O)c(-c3cccc(C[P+](c4ccccc4)(c4ccccc4)c4ccccc4)c3)coc2c1OC [SND543] | 1440 nM | 1340 nM | 630 nM | 970 nM | 1510 nM | 3870 nM | 970 nM | 1810 nM | 920 nM | 980 nM | 560 nM | 2000 nM | 680 nM | 
2 | COc1ccc2c(=O)c(-c3ccc(CC[P+](c4ccccc4)(c4ccccc4)c4ccccc4)cc3)coc2c1OC [SND550] |  |  |  |  |  |  |  |  |  |  |  |  |  | IC50 (NCI-H1299): 1300 nM; IC50 (HCC-15; HCC15): 1300 nM; IC50 (MIA-PaCa-2; Homo sapiens): 4300 nM; IC50 (A375; Homo sapiens, A-375): 920 nM; IC50 (SK-N-SH; Homo sapiens): 3690 nM; IC50 (H69; Homo sapiens, NCI-H69): 680 nM; IC50 (22Rv1; Homo sapiens): 750 nM
3 | COc1ccc2c(=O)c(-c3cccc(CC[P+](c4ccccc4)(c4ccccc4)c4ccccc4)c3)coc2c1OC [SND542] | 1710 nM | 1470 nM | 430 nM | 870 nM | 760 nM | 2750 nM | 210 nM | 1460 nM | 800 nM | 690 nM | 510 nM | 1780 nM | 690 nM | IC50 (LoVo): 4830 nM
4 | O=c1c(-c2ccc(CCCC[P+](c3ccccc3)(c3ccccc3)c3ccccc3)cc2)coc2c(O)c(O)ccc12 [SND490, (4-(4-(7,8-Dihydroxy-4-oxo-4H-chromen-3-yl)phenyl)butyl)triphenylphosphonium bromide] |  |  |  |  |  |  |  |  |  |  |  |  |  | IC50 (MOLT-4): 560 nM; IC50 (A-673): 1950 nM
